Patent publication US20210222184A1, “COMPOSITIONS AND METHODS FOR EXPRESSING TRANSGENES USING REGULATORY ELEMENTS FROM RUBISCO ACTIVASE GENES” (DOW AGROSCIENCES LLC, priority 2018, published 2021)

Assays:
[1] = tested on: transgenic soybean plants; assay: 2,4-D herbicide tolerance of T1 transgenic soybean plants; format: in vivo, Glycine max; conditions: 2240 g ae/ha 2,4-D foliar
Excerpt: To assess T1 Soybean Herbicide Tolerance, T1 seed generated from self-pollination of single copy T0 events were planted in an artificial soil mix (MetroMix 360™) contained in 4-inch square pots. The T1 generation is a segregating population of the homozygous, hemizygous and non-transgenic plants. To eliminate the null individuals, the T1 population received a foliar application of 411 g active ingredient (ai)/ha glufosinate ammonium (Liberty® 280) when plants reached the first trifoliate leaf stage. Four days after application (DAA) surviving plants were sampled for molecular analysis to determine transgene zygosity and to confirm transgene copy number.
For each event, 8 homozygous and 8 hemizygous plants were sampled for protein analyses, and the following day (third trifoliate stage), half of the plants received a foliar application of 2240 g acid equivalent (ae)/ha 2,4-D dimethylamine (DMA) salt (Weedar® 64). The remaining plants received no spray application. Some plants were also sprayed with deionized water as a sprayer application control. In addition to the transformed events, the soybean variety, ‘Maverick’, was included in each treatment as a non-transformed control.
Foliar applications were made with a Mandel track sprayer set to deliver a spray solution at 187 L/ha to a spray area of 0.503 m^2 using an 8002E nozzle and a spray height of 18 inches above the plant canopy. Plant response to the 2,4-D application was evaluated at 5 hours after application (HAA) and 1, 7, and 14 DAA. Data were collected by assessment of visual injury and/or growth reduction as compared to untreated controls on a scale of 0% to 100% with 0% corresponding to no injury or growth reduction and 100% corresponding to complete plant death. Plants were maintained at 28° C./25° C. (day/night) under a 14 h photoperiod and sub-irrigated with water or fertilizer as needed.

[2] = tested on: tagRFP/AAD12 reporter gene; assay: N. benthamiana leaf infiltration transient assay, RFP fluorescence; format: in vivo; conditions: for RFP Mean / RFP Median: Typhoon scanner fluorescence, leaves collected 6th day after infiltration, co-infiltrated with P19 silencing suppressor strain
Excerpt: Twenty four day old plants were used for infiltration.

GFP = GFP driven by AtUbi10/AtuOrf23 in both constructs; Typhoon scanner, 6th day after infiltration
Protocol: N. benthamiana plants were grown in the greenhouse under 16 hour photoperiod, 27° C./24° C. Twenty four day old plants were used for infiltration. The 3-4 top-most leaves were infiltrated using two Agrobacterium strains. The first strain was used in all infiltrations and carried the pDAB112236 construct expressing P19 silencing suppressor (Silhavy et al, (2002), EMBO J, 21, 3070-3080). The second Agrobacterium strain was either the experimental strain carrying pDAB116647 (SEQ ID NO:12) or a strain carrying the control pDAB110167 binary vector (FIG. 6). The pDAB110167 was identical to the pDAB116647 (SEQ ID NO:12) except that it had the reporter tagRFP/AAD12 fusion gene driven by the ScBV (Sugar Cane Bacilliform Virus) promoter fused to the Maize Streak Virus (MSV) 5′ leader engineered to contain maize Alcohol dehydrogenaseI (AdhI) gene intron 6 was paired with the StPinII terminator fragment (abbreviated ScBV/StPinII) to drive expression of the tagRFP/AAD12 reporter gene.
For N. benthamiana leaf infiltrations Agrobacterium strains containing either the pDAB116647 or pDAB110167 were mixed in equal proportions with an Agrobacterium strain that carried a plasmid that contained a gene encoding the P19 silencing suppressor Voinnet et al, (1999), Proc Natl Acad Sci USA, 96, 14147-14152. The mixing ratios were based on Optical Density (OD) readings. The density of all Agrobacterium cultures was adjusted to OD 2.0. After infiltration plants were maintained in a Conviron until leaves were collected on the 6th day after infiltration. Fluorescence data were collected using a Typhoon scanner from 30 leaves per construct with 3-5 one inch disks per leaf.
All samples from N. benthamiana were scanned on 3 channels: chlorophyll (488 nm blue laser, 670 nm BP30, 580 nm split), GFP (488 nm blue laser, 520 nm BP40, 580 nm split), and tagRFP (532 nm green laser, 580 nm BP30). The PhotoMultiplier Tube (PMT) setting used for N. benthamiana was 340/340/400. Background adjustments were made by subtracting calculated means for non-treated and empty vector controls from test treatment values. The values from each leaf were averaged to generate a mean fluorescence value.

Substance | % Injury Mean 1 DAA ([1]; Hemi) | % Injury Mean 5 HAA ([1]; Hemi) | % Injury Mean 7 DAA ([1]; Hemi) | % Injury Mean 14 DAA ([1]; Hemi) | % Injury Mean 1 DAA ([1]; Homo) | % Injury Mean 5 HAA ([1]; Homo) | % Injury Mean 7 DAA ([1]; Homo) | % Injury Mean 14 DAA ([1]; Homo) | RFP Mean [2] | RFP Median [2] | RFP fluorescence relative to the control (pDAB110167) construct ([2]; mean and median, p-Value <0.0001) | GFP Mean (GFP) | GFP Median (GFP)
pDAB116632: plasmid with GmRubAct promoter and 5' UTR fused to AAD12 gene, terminated with GmRubAct terminator | 18.13% | 15.0% | 4.38% | 3.75% | 12.0% | 8.67% | 2.33% | 1.67% | – | – | – | – | –
pDAB116647: binary vector with tagRFP/AAD12 reporter gene driven by GmRubAct promoter, 5' UTR and terminator | – | – | – | – | – | – | – | – | 40982229 | 39409305 | significantly higher | 161956091 | 156309149
pDAB110167: control binary vector; tagRFP/AAD12 driven by ScBV promoter, MSV 5' leader with AdhI intron 6, StPinII terminator [reference compound] | – | – | – | – | – | – | – | – | 24746396 | 21007653 | – | 166966846 | 148985095
